Here are results for one molecule from ChEMBL document CHEMBL1131516, “Sialyl Lewis X-polysaccharide conjugates: targeting inflammatory lesions” (Bioorg Med Chem Lett, 1998).

The assay concerns the target T1, E-selectin (Rattus norvegicus, UniProt P98105).
T1 sequence (P98105 whole entry): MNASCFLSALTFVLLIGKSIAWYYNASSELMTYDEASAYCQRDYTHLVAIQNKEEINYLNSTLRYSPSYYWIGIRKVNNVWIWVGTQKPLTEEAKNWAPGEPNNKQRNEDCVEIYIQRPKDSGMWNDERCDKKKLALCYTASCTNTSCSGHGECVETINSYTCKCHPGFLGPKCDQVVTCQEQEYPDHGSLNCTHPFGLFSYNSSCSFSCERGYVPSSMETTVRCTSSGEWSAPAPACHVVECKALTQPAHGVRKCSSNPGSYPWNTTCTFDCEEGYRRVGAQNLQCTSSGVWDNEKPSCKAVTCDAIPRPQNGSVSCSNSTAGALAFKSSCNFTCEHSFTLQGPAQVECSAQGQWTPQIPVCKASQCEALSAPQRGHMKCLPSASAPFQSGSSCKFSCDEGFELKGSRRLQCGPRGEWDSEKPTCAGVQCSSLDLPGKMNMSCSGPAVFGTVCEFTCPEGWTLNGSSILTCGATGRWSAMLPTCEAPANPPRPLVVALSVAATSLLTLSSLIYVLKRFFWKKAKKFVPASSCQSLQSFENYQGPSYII
As to the kind of experiment: Inhibitory concentration against Selectin E expressed at the inflammatory lesion was measured by inhibition of leukocyte rolling in the inflammatory model using IL-lbeta activated rat mesentery venules. (In vivo ). It is filed as organism-based.

The structures appear in SMILES notation.

Turning to `CCOCCOCCOCCOCCOCCO[C@@H]1O[C@@H](CO)[C@@H](O[C@@H]2O[C@@H](CO)[C@H](O)[C@H](O[C@]3(C(=O)O)C[C@@H](O)[C@@H](NC(C)=O)[C@H]([C@H](O)[C@H](O)CO)O3)[C@@H]2O)[C@H](O[C@@H]2O[C@@H](C)[C@@H](O)[C@H](O)[C@@H]2O)[C@@H]1NC(C)=O`, 2630 nM corresponded to half-maximal inhibition (IC50).

Usually IC50 stands for the midpoint of a concentration-inhibition curve. Higher therefore signals lower potency.
